Results reported in patent US20240269139A1, “COMPOUNDS FOR TARGETED PROTEIN DEGRADATION OF KINASES” (DANA-FARBER CANCER INSTITUTE, INC., priority 2020, published 2024).
Read-outs that look alike come from different tables or passages of the source.

Columns and labels:
Format in all cases: cell-based
[1] = molecular target: protein kinases (human kinome) (Homo sapiens, UniProt Q8N165); conditions: for logFC of PDIK1L (Q8N165): Experiment wp168; for logFC: PDIK1L (Q8N165), experiment wp168
[2] = molecular target: protein kinases (human kinome) (Homo sapiens, UniProt O43353); conditions: for logFC: RIPK2 (O43353-1)
Chain of protein kinases (human kinome) (Homo sapiens, UniProt O43353) (O43353 whole entry): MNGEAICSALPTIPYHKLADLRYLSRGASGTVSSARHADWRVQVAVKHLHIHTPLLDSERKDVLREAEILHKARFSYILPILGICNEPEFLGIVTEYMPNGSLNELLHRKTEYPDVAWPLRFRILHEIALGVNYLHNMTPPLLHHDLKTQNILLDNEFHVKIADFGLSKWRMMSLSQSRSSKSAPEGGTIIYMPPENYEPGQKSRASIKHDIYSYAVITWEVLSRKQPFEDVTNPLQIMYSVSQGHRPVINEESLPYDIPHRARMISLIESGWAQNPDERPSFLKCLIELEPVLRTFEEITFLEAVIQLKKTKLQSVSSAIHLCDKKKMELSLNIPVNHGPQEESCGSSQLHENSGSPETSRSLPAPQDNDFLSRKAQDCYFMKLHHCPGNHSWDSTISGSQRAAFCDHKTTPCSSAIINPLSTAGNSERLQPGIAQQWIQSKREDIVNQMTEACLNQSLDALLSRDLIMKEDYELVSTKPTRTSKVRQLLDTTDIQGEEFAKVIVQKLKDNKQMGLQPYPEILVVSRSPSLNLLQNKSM

[3] = molecular target: protein kinases (human kinome) (Homo sapiens, UniProt O00746); conditions: NME4 (O00746); experiment wp084
Chain of protein kinases (human kinome) (Homo sapiens, UniProt O00746) (O00746 29-187): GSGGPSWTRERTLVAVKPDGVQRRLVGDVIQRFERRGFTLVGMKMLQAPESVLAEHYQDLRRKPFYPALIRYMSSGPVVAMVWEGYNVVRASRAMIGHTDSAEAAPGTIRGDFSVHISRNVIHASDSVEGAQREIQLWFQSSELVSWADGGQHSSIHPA

[4] = molecular target: protein kinases (human kinome) (Homo sapiens, UniProt Q9Y243); conditions: AKT3 (Q9Y243-1)
Chain of protein kinases (human kinome) (Homo sapiens, UniProt Q9Y243) (Q9Y243 whole entry): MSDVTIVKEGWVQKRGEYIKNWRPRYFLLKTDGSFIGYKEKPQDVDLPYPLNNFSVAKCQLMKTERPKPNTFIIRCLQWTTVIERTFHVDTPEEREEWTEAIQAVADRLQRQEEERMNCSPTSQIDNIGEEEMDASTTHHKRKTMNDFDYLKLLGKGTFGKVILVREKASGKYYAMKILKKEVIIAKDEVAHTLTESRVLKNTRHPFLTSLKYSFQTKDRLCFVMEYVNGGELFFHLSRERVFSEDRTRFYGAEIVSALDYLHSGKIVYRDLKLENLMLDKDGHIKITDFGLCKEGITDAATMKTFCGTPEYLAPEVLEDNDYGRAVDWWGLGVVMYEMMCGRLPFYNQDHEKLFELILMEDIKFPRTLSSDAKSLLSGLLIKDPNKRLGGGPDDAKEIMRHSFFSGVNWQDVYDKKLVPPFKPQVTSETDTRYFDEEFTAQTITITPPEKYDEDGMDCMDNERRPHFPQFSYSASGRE

[5] = molecular target: protein kinases (human kinome) (Homo sapiens, UniProt P19525); conditions: for logFC: EIF2AK2 (P19525)
Chain of protein kinases (human kinome) (Homo sapiens, UniProt P19525) (P19525 whole entry): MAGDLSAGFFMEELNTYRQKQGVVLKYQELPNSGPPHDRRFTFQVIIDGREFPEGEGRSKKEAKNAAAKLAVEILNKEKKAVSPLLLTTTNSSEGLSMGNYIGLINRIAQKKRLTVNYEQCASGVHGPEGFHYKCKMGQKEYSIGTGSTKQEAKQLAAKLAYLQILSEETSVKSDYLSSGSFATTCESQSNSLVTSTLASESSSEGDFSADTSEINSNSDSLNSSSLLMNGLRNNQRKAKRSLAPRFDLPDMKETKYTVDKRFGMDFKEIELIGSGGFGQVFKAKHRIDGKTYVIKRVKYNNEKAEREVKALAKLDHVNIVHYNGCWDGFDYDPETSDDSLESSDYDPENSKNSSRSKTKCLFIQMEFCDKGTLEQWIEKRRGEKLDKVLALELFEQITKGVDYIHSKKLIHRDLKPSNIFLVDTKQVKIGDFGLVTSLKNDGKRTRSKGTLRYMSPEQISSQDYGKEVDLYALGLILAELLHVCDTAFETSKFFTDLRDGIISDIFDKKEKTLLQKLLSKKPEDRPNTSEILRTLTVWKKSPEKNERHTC

[6] = molecular target: protein kinases (human kinome) (Homo sapiens, UniProt P51617); conditions: IRAK1 (P51617)
Chain of protein kinases (human kinome) (Homo sapiens, UniProt P51617) (P51617 whole entry): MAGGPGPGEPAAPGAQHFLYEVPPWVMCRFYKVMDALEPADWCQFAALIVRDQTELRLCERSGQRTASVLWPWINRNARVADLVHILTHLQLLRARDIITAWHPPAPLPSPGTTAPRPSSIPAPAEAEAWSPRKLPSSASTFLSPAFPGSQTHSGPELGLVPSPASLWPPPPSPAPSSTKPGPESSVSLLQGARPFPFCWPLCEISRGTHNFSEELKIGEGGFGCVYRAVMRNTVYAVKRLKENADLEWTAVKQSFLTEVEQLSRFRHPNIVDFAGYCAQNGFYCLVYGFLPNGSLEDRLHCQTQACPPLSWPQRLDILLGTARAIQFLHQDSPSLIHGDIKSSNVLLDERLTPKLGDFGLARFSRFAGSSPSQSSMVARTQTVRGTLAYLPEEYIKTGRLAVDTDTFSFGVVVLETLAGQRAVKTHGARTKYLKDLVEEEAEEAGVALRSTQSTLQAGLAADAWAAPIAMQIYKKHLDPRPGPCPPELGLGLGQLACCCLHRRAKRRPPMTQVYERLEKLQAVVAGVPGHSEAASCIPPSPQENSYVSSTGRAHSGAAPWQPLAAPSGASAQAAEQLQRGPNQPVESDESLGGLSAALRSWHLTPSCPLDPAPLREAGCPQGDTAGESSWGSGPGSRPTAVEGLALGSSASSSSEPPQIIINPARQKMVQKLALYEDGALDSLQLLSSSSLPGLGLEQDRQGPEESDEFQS

[7] = molecular target: T1, protein kinases (human kinome) (Homo sapiens, UniProt P21709); conditions: for logFC of EPHA1 (P21709): Experiment wp114; for logFC EPHA1: protein EPHA1 (P21709), experiment wp114, direction of change down
T1 sequence (P21709 26-976): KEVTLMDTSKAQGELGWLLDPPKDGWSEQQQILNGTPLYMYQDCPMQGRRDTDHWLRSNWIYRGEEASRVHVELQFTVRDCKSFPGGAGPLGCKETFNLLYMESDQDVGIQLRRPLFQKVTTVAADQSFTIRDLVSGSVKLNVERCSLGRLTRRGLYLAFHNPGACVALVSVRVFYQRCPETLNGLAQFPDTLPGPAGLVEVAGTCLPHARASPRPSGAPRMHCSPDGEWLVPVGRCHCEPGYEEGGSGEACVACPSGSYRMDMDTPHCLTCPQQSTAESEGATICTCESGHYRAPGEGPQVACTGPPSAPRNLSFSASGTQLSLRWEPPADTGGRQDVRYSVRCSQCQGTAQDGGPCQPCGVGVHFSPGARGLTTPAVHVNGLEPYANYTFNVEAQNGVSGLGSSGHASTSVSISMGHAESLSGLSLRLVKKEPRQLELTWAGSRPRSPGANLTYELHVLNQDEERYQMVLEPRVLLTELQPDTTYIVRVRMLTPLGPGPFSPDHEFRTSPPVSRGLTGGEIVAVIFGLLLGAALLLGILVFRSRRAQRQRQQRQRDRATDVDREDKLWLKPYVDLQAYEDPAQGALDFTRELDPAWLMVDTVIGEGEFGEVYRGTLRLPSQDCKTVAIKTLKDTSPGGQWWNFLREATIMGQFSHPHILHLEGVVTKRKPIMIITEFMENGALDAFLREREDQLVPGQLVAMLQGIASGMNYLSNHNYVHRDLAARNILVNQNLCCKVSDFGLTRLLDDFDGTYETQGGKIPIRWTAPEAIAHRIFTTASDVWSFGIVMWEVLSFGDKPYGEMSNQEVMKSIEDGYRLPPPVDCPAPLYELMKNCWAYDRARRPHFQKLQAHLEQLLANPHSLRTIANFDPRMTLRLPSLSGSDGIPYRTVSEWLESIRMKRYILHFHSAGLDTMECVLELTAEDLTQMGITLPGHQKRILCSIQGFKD

[8] = molecular target: protein kinases (human kinome) (Homo sapiens, UniProt Q9P1W9); conditions: experiment wp076; for logFC: PIM2 (Q9P1W9)
Chain of protein kinases (human kinome) (Homo sapiens, UniProt Q9P1W9) (Q9P1W9 whole entry): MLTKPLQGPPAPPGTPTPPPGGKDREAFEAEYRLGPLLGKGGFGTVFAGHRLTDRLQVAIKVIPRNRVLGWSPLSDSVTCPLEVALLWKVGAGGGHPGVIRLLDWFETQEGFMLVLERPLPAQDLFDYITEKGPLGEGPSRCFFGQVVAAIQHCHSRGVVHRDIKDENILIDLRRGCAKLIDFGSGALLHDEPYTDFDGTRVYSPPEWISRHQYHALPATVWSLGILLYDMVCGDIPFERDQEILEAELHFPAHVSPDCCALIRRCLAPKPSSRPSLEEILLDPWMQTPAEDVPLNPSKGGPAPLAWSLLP

[9] = molecular target: T2, protein kinases (human kinome) (Homo sapiens, UniProt O14757); conditions: for logFC: CHEK1 (O14757)
T2 sequence (O14757 1-476): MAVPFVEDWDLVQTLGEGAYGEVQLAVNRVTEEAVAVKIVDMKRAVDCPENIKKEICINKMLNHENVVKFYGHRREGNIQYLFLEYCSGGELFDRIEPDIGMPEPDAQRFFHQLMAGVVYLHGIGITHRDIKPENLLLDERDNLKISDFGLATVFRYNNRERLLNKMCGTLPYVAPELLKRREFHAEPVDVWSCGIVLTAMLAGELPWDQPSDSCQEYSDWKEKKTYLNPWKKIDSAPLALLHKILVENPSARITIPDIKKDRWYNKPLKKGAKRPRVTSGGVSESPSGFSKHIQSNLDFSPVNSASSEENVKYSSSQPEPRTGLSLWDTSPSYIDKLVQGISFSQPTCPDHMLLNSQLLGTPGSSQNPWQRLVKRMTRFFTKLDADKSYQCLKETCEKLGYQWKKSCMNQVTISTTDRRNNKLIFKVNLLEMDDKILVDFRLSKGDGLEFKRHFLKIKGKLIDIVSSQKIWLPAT

[10] = molecular target: protein kinases (human kinome) (Homo sapiens, UniProt P36894); conditions: for logFC: BMPR1A (P36894)
Chain of protein kinases (human kinome) (Homo sapiens, UniProt P36894) (P36894 24-532): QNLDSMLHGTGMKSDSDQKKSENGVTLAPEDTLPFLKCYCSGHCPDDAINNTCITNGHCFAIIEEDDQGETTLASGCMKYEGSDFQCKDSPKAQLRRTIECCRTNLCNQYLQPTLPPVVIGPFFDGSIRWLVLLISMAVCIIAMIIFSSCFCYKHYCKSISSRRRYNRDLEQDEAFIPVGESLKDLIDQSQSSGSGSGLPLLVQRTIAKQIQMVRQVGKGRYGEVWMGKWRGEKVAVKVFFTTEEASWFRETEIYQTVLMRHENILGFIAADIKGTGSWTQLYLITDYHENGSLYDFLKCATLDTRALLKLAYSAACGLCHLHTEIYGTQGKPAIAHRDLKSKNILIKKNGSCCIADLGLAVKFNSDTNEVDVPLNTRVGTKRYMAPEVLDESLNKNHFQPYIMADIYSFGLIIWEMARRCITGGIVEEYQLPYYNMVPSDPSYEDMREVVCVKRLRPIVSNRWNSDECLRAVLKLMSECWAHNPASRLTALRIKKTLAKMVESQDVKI

[11] = experiment wp105, direction down

Chain of protein kinases (human kinome) (Homo sapiens, UniProt Q8N165) (Q8N165 whole entry): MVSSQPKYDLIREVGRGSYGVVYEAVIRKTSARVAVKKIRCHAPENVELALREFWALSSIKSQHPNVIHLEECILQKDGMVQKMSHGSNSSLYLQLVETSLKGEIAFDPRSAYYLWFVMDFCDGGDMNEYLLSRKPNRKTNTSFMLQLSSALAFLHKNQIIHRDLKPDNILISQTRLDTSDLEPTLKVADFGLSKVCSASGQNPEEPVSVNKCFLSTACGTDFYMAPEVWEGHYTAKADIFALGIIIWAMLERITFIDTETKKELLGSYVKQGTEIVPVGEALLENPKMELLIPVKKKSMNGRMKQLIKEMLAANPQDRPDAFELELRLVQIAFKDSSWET

With Cc1ccc(NC(=O)c2cccc(C(F)(F)F)c2)cc1N1Cc2cnc(Nc3ccc(N4CCN(CCCOc5cccc6c5C(=O)N(C5CCC(=O)NC5=O)C6=O)CC4)nc3)nc2N(C)C1=O (centres unmarked) [DB0662] the “logFC of PDIK1L (Q8N165)” value [1] was −0.3272 and the logFC [1] was −0.3272.

In the case of Cc1ccc(NC(=O)c2cccc(C(F)(F)F)c2)cc1N1Cc2cnc(Nc3ccc(N4CCN(Cc5cn(CCCCCOc6cccc7c6C(=O)N(C6CCC(=O)NC6=O)C7=O)nn5)CC4)nc3)nc2N(C)C1=O (centres unmarked) [DB0646, N-(3-(7-((6-(4-((1-(5-((2-(2,6-Dioxopiperidin-3-yl)-1,3-dioxoisoindolin-4-yl)oxy)pentyl)-1H-1,2,3-triazol-4-yl)methyl)piperazin-1-v)pyridin-3-yl)amino)-1-methyl-2-oxo-1,4-dihydropyrimido[4,5-d]pyrimidin-3(2H)-yl)-4-methylphenyl)-3-(trifluoromethyl)benzamide], the “logFC of RIPK2 (O43353-1)” value ([2]; Experiment wp172) was −0.4779, the logFC ([2]; experiment wp105) was −0.4215 and the logFC ([2]; experiment wp172) was −0.4779. The “logFC of RIPK2 (O43353-1)” value ([2]; experiment wp105) was −0.4215.

Compound CN(C)C(=O)c1cc2cnc(Nc3ccc(N4CCN(CCCCNC(=O)COc5cccc6c5C(=O)N(C5CCC(=O)NC5=O)C6=O)CC4)cn3)nc2n1C1CCCC1 (centres unmarked) [BSJ.04.132] has a logFC [3] of −0.4467.

With C[C@@H]1C[C@@H](O)c2ncnc(N3CCN(C(=O)[C@H](CNCCCCCCCCCCc4cccc5c4C(=O)N(C4CCC(=O)NC4=O)C5=O)c4ccc(Cl)cc4)CC3)c21 (some centres unmarked) [INY.03.041.01] the logFC ([4]; experiment wp118) was −2.769, the logFC ([4]; experiment wp118, direction down) was −2.769 and the logFC ([4]; experiment wp135, 4 hr) was −1.925. For the same compound, the logFC ([4]; experiment wp135, 4 hr, direction down) was −1.925.

For CC(C)(C)c1nc(-c2cccc(NS(=O)(=O)c3c(F)cccc3F)c2F)c(-c2ccnc(NCCOCCNC(=O)CCOCCOCCNc3cccc4c3C(=O)N(C3CCC(=O)NC3=O)C4=O)n2)s1 (centres unmarked) [DD.03.106], the logFC ([5]; experiment wp147, 2 uM) was −0.3545, the logFC ([5]; experiment wp147, 4 uM) was −0.4042 and the “logFC of EIF2AK2 (P19525)” value ([5]; Experiment wp147, 2 uM) was −0.3545. For the same compound, the “logFC of EIF2AK2 (P19525)” value ([5]; Experiment wp147, 4 uM) was −0.4042.

Compound Cc1ccc(C(=O)Nc2ccc(CN3CCN(CCOCCOCCNC(=O)CNc4cccc5c4C(=O)N(C4CCC(=O)NC4=O)C5=O)CC3)c(C(F)(F)F)c2)cc1C#Cc1cnc2cccnn12 (centres unmarked) [TL13.150] has a logFC ([6]; experiment wp081) of −2.834 and a logFC ([6]; experiment wp081, direction down) of −2.834.

With Cc1ccc(C(=O)Nc2ccc(CN3CCN(CCCOCCOCCOCCNC(=O)COc4cccc5c4C(=O)N(C4CCC(=O)NC4=O)C5=O)CC3)c(C(F)(F)F)c2)cc1C#Cc1cnc2cccnn12 (centres unmarked) [SB1.G.187] the “logFC of RIPK2 (O43353-1)” value ([2]; Experiment wp114) was −0.8828, the logFC ([2]; experiment wp105) was −0.572 and the logFC ([2]; experiment wp114) was −0.8828. For the same compound, the “logFC of RIPK2 (O43353-1)” value ([2]; experiment wp105) was −0.572, the “logFC of EPHA1 (P21709)” value [7] was −0.3552 and the “logFC EPHA1” value [7] was −0.3552. The logFC ([6]; experiment wp056) was −1.578, the logFC ([6]; experiment wp056, direction down) was −1.578 and the logFC ([6]; experiment wp103) was −1.504. It also gave a logFC ([6]; experiment wp103, direction down) of −1.504, a logFC ([6]; experiment wp105) of −1.404 and a logFC [6, 11] of −1.404. The logFC ([6]; experiment wp107) was −1.996, the logFC ([6]; experiment wp107, direction down) was −1.996 and the logFC ([6]; experiment wp172) was −1.572. For the same compound, the logFC ([6]; experiment wp172, direction down) was −1.572.

In the case of CCc1cnn2c(N(Cc3ccc(N)nc3)C(=O)CCOCCOCCOCCNC(=O)CNc3cccc4c3C(=O)N(C3CCC(=O)NC3=O)C4=O)cc(N3CCCC[C@H]3CCO)nc12 (some centres unmarked) [MFH.5.115.2], the logFC [8] was −1.679 and the “logFC of PIM2 (Q9P1W9)” value [8] was −1.679.

Work on CC(=O)c1c(C)c2cnc(Nc3ccc(N4CCN(CCOCCOCCOCCNC(=O)COc5cccc6c5C(=O)N(C5CCC(=O)NC5=O)C6=O)CC4)cn3)nc2n(C2CCCC2)c1=O (centres unmarked) [BSJ.03.123] yielded a logFC [3] of −0.3681.

For CS(=O)(=O)Nc1cccc(-c2csc3cnc(Nc4ccc(N5CCN(CCCCCOc6cccc7c6C(=O)N(C6CCC(=O)NC6=O)C7=O)CC5)cc4)nc23)c1 (centres unmarked) [DB0614, N-(3-(2-((4-(4-(5-((2-(2,6-Dioxopiperidin-3-yl)-1,3-dioxoisoindolin-4-yl)oxy)pentyl)piperazin-1-yl)phenyl)amino)thieno[3,2-d]pyrimidin-7-yl)phenyl)methanesulfonamide], the logFC ([5]; experiment wp117) was −0.3221 and the “logFC of EIF2AK2 (P19525)” value ([5]; Experiment wp117) was −0.3221.

Cc1ncsc1-c1ccc([C@H](C)NC(=O)[C@@H]2C[C@@H](O)CN2C(=O)[C@@H](NC(=O)CCOCCOCCN2CCN(c3ccc(Nc4ncc(Cl)c(Nc5ccccc5S(=O)(=O)C(C)C)n4)cc3)CC2)C(C)(C)C)cc1 [FMF.06.098.1] was tested, and the logFC ([9]; experiment wp108) was −0.3674, the logFC ([9]; experiment wp114) was −0.4124 and the “logFC of CHEK1 (O14757)” value ([9]; Experiment wp108) was −0.3674. The “logFC of CHEK1 (O14757)” value ([9]; Experiment wp114) was −0.4124, the “logFC of EPHA1 (P21709)” value [7] was −0.422 and the “logFC EPHA1” value [7] was −0.422.

CC(C)S(=O)(=O)c1ccccc1Nc1nc(Nc2ccc(N3CCN(CCOCCNC(=O)CNc4cccc5c4C(=O)N(C4CCC(=O)NC4=O)C5=O)CC3)cc2)ncc1Cl (centres unmarked) [SK.3.91] was tested, and the logFC ([10]; experiment wp105) was −0.4077, the logFC ([10]; experiment wp107) was −1.103 and the logFC ([10]; experiment wp133, 4 hr) was −0.8007. For the same compound, the “logFC of BMPR1A (P36894)” value ([10]; Experiment wp107) was −1.103, the “logFC of BMPR1A (P36894)” value ([10]; experiment wp105) was −0.4077 and the “logFC of BMPR1A (P36894)” value ([10]; experiment wp133, 4 hr) was −0.8007. The logFC ([4]; experiment wp105) was −0.7783 and the logFC [4, 11] was −0.7783.

Cc1ccc(NC(=O)c2cccc(C(F)(F)F)c2)cc1N1Cc2cnc(Nc3ccc(N4CCN(CCCCC(=O)N[C@H](C(=O)N5C[C@H](O)C[C@H]5C(=O)N[C@@H](C)c5ccc(-c6scnc6C)cc5)C(C)(C)C)CC4)nc3)nc2N(C)C1=O [DB1113] was tested, and the “logFC of PDIK1L (Q8N165)” value [1] was −0.5334 and the logFC [1] was −0.5334.

For O=C1CCC(N2C(=O)c3cccc(NCCCCCCCCN4CCC(NC(=O)c5[nH]ncc5NC(=O)c5c(Cl)cccc5Cl)CC4)c3C2=O)C(=O)N1 (centres unmarked) [MFH.5.126.1], the logFC ([9]; experiment wp076) was −0.3606, the “logFC of CHEK1 (O14757)” value ([9]; experiment wp076) was −0.3606 and the logFC [8] was −3.019. For the same compound, the “logFC of PIM2 (Q9P1W9)” value [8] was −3.019.

With CC(C)S(=O)(=O)c1ccccc1Nc1nc(Nc2ccc(N3CCN(CCOCCOCCNC(=O)CNc4cccc5c4C(=O)N(C4CCC(=O)NC4=O)C5=O)CC3)cc2)ncc1Cl (centres unmarked) [TL12.186] the logFC ([10]; experiment wp131) was −0.8334, the logFC ([10]; experiment wp137) was −0.6566 and the “logFC of BMPR1A (P36894)” value ([10]; experiment wp131) was −0.8334. For the same compound, the “logFC of BMPR1A (P36894)” value ([10]; experiment wp137) was −0.6566.
